For one data set, the system named is horny layer. In words: Test 1: skin conductance (water content of the horny layer) after 2-week application on cheeks. The format is in vivo, human. Also on record: unit not given here. The following applies: preparation of 33% diamide derivative and 67% vaseline; applied on cheeks 2 weeks; ten female subjects with chapping; skin conductance meter, 20° C., humidity 45%. The protocol: (§1) Dermatologic preparations (invention products) composed of 33% of each of the diamide derivatives prepared in Preparation Examples 1 to 18 and 67% of vaseline were prepared. Their effects on skin conductance and chapping were evaluated in the below-described manner. For comparison, a dermatologic preparation (Comparative Product 1) composed of vaseline alone was evaluated in the same manner.
(§2) Ten female subjects aged 20 to 50 years, who suffered chapping in cheeks in winter, were employed. Different dermatologic preparations were applied on the right and left cheeks of the subjects for 2 weeks, respectively. On the next day after completion of the application for 2 weeks, the following items were examined.
The face of each subject was washed with warm water of 37° C. After they were allowed to stand in a room at 20° C. under a humidity of 45% for 20 minutes, the water content of the horny layer was measured using a skin conductance meter (product of IBS Co., Ltd.).

In the next data set the test system is chapping in cheeks. Put plainly: Test 1: skin chapping score by naked-eye observation after 2-week application on cheeks. The following applies: 33% diamide derivative and 67% vaseline, 2 weeks, mean score, 0 no chapping to 4 serious chapping. It counts as in vivo, human. The protocol: as §1, §2
Each score is expressed in the mean value.
0: No chapping is observed.
1: Slight chapping is observed.
3: Somewhat serious chapping is observed.
4: Serious chapping is observed.

The test system of data set [1] is dorsal skin of rats with essential fatty acid deficiency. Put plainly: Test 2: transepidermal water loss in rats with essential fatty acid deficiency. Details: unit not given here. It counts as in vivo, Wistar male rats. The conditions noted are these: 10% diamide derivative and 90% squalane; applied to shaven dorsal part once a day for 2 weeks; evaporimeter; mean of 5 rats. The protocol: (§3) Dermatologic preparations (invention products) of the present invention composed of 10% of each of the diamide derivatives prepared in Preparation Examples 1 to 18 and 90% of squalane were prepared and their transepidermal water loss and percutaneous absorption were evaluated by the below-described test method. For comparison, a dermatologic preparation (Comparative Product 2) composed of squalane alone was also evaluated by the test.
(§4) Wistar male rats were fed with a feed free from essential fatty acids and the resulting rats with essential fatty acid deficiency were employed in this test. The dorsal part of the rat showing essential fatty acid deficiency was carefully shaven and each dermatologic preparation to be evaluated was applied thereto once a day for 2 weeks. A group consisting of 5 rats was provided for the test of each dermatologic preparation. After 2 weeks, the following items were examined.
The dorsal part of the test rat was washed with warm water and the animal was the allowed to stand in a room (at 23° C. under a humidity of 45%) for 1 hour. The transepidermal water loss was then measured with an evaporimeter. Each measured value is expressed in mean value.

Data set [2] shares this test system. Put plainly: Test 2: percutaneous absorption of 14C-salicylic acid through excised dorsal skin of treated rats. It counts as in vivo, Wistar male rats. The following applies: 10% diamide derivative and 90% squalane; once a day for 2 weeks; radioactivity of 14C-salicylic acid penetrated in 2 hours through excised skin; mean. The protocol:
as §3, §4
After the dorsal skin of the rat was washed with warm water of 37° C., it was cut and fixed in a percutaneous absorption chamber with the epidermal side thereof directed upward. A lower receiver of the chamber was filled with a phosphate buffer solution while a container on the epidermal side thereof was charged with 1 ml of a phosphate buffer solution containing 37 KBq of ^14C-salicylic acid. Two hours after they were allowed to stand, 1 mL of the phosphate buffer solution was taken out of the lower receiver and the radioactivity of the ^14C-salicylic acid which had penetrated into it was measured. Each value is expressed in mean value.

Data set [3] in a line: Miscibility and mixing stability in cosmetic formulations. It counts as physicochemical.
Where [4] appears, read: in hair liquid composition of Table 10, 1%.

Structures are written as SMILES.

For `CCCCCCCCCCCCOCCCNC(=O)CCCCCCC(C)CCCCC(C)CCCCCCC(=O)NCCCOCCCCCCCCCCCC` (stereo not drawn) [Compound (G)], in the data set with horny layer, the Skin conductance stood at 17. Further, in the data set with chapping in cheeks, the Skin chapping score turned out to be 1.1. In data set [1], this compound had a Transepidermal water loss of 16. Further, the Percutaneous absorption in data set [2] came to 1096.
Regarding `C/C(=C\CC/C=C(\C)CCCCCCC(=O)NCCOCCO)CCCCCCC(=O)NCCOCCO` [Compound (B)], in the data set with horny layer, the Skin conductance stood at 25. In the data set with chapping in cheeks, this compound registered a Skin chapping score of 0.9. In addition, the Transepidermal water loss in data set [1] was 12. In addition, the Percutaneous absorption in data set [2] came out at 558.
The compound `O=C(CCCCCCCCCCCCCCCCCCC(=O)NCCOCCO)NCCOCCO` [Compound (C)] returned a Skin conductance in the data set with horny layer of 21. In the data set on chapping in cheeks, this compound showed a Skin chapping score of 1.0. The Transepidermal water loss in data set [1] turned out to be 21. The Percutaneous absorption in data set [2] worked out at 1685.
In the data set with horny layer, `COCCOCCNC(=O)CCCCCCC(C)CCCCC(C)CCCCCCC(=O)NCCOCCOC` (stereo not drawn) [Compound (H)] showed a Skin conductance of 19. In the data set on chapping in cheeks, this compound displayed a Skin chapping score of 1.3. Moreover, the Transepidermal water loss in data set [1] stood at 23. For the same compound, the Percutaneous absorption in data set [2] turned out to be 2036.
Consider `CCCCCCCCCCCCOCCCNC(=O)CCCCCCCCC(=O)NCCCOCCCCCCCCCCCC` [Compound (O)], for which, in data set [1], the Transepidermal water loss is on record as 27. Also, in data set [2], the Percutaneous absorption is listed as 2476.
In turn, `O=C(CCC(=O)NCCOCCO)NCCOCCO` [Compound (E)] gave a Skin conductance in the data set on horny layer of 18. Also, the Skin chapping score in the data set with chapping in cheeks is reported as 1.0. Moreover, the Transepidermal water loss in data set [1] is listed as 25. In addition, in data set [2], the Percutaneous absorption is listed as 1772.
The matching figures for `COCCCNC(=O)CCCCCCCCC(=O)NCCCOC` [Compound (N)]: 18, 1.5, 23 and 1560.
On to `CC(CCCCCCC(=O)NCCOCCO)CCCCC(C)CCCCCCC(=O)NCCOCCO` (stereo not drawn) [Compound (A)], for which the Skin conductance with horny layer worked out at 28. Moreover, the Skin chapping score in the data set on chapping in cheeks was determined as 0.6. Besides, the Transepidermal water loss in data set [1] is 12. The Percutaneous absorption in data set [2] was 572. For the same compound, the “miscibility and mixing stability” value in data set [3] (in shampoo of Table 9, 2%) is recorded as “excellent”; in data set [3] (in skin lotion of Table 7, 1%), “excellent”.
The compound `COCCCNC(=O)CCCCCCC(C)CCCCC(C)CCCCCCC(=O)NCCCOC` (stereo not drawn) [Compound (F)] had a Skin conductance in the data set on horny layer of 20. For the same compound, the Skin chapping score in the data set with chapping in cheeks was 1.2. In data set [1], the Transepidermal water loss stood at 20. The Percutaneous absorption in data set [2] was found to be 1487. Moreover, the “miscibility and mixing stability” value in data set [3] (in O/W cream of Table 8, 3.5%) is on record as “excellent”; in data set [3] (setting [4]) it was “excellent”; in data set [3] (in shampoo of Table 9, 2%) it was “excellent”; in data set [3] (in skin lotion of Table 7, 1%) it was “excellent”.
On to `O=C(CCCCCCCCCCC(=O)NCCOCCO)NCCOCCO` [Compound (K)], for which the Transepidermal water loss in data set [1] turned out to be 22. Moreover, in data set [2], the Percutaneous absorption is recorded as 1694.
`O=C(CCCCCCCCCCCC(=O)NCCOCCO)NCCOCCO` [Compound (J)] returned a Skin conductance in the data set on horny layer of 23. Moreover, the Skin chapping score with chapping in cheeks is 0.8. Further, the Transepidermal water loss in data set [1] stood at 21. For the same compound, in data set [2], the Percutaneous absorption came to 1490.
On to `O=C(CCCCCCCCC(=O)NCCOCCO)NCCOCCO` [Compound (D)], for which, in the data set with horny layer, the Skin conductance turned out to be 30. Besides, the Skin chapping score in the data set with chapping in cheeks is recorded as 0.5. For the same compound, the Transepidermal water loss in data set [1] is recorded as 15. In data set [2], the Percutaneous absorption is given as 997. In addition, the “miscibility and mixing stability” value is “excellent” in data set [3] (in O/W cream of Table 8, 3.5%) and “excellent” in data set [3] (setting [4]).
`O=C(CCCCCCCCCCCCCC(=O)NCCOCCO)NCCOCCO` [Compound (I)] displayed a Transepidermal water loss in data set [1] of 18. For the same compound, the Percutaneous absorption in data set [2] turned out to be 1197.
`COCCCNC(=O)CCCCCCCCCCC(=O)NCCCOC` [Compound (M)] came in with a Transepidermal water loss in data set [1] of 25. In data set [2], the Percutaneous absorption is 2038.
Consider `COCCCNC(=O)CCCCCCCCCCCCCCCCCCC(=O)NCCCOC` [Compound (L)], for which, in the data set with horny layer, the Skin conductance is listed as 19. Further, the Skin chapping score in the data set with chapping in cheeks is listed as 1.3. The compound also had a Transepidermal water loss in data set [1] of 15. The Percutaneous absorption in data set [2] came out at 705.

Values taken from patent US20040115162A1, “Dermatological preparations” (KAO CORPORATION, priority 1999, published 2004).
